Tests used:
Type in all cases: biochemical
mouse MMP-3 = molecular target: T1, mouse MMP-3 (Mus musculus, UniProt P28862); experiment: In vitro mouse MMP-3 inhibition test
T1 construct: purchased R&D Systems 548-MP
From the text: (§1) The MMP-mediated amidolytic cleavage of a suitable peptide substrate leads to an increase in fluorescent light here too. The signal intensity of the fluorescent light is directly proportional to the enzyme activity. The active concentration of a test compound at which half the enzyme is inhibited (50% signal intensity of the fluorescent light) is reported as the IC50 value.
(§2) Recombinant mouse MMP-3 (from R&D Systems, 548-MP) is chemically activated in accordance with the manufacturer's instructions using APMA. 1 μl of the test compound to be analysed (as a solution in DMSO, suitable concentrations, for example, 1 nM to 30 μM) is pipetted into 24 μl of activated enzyme (final concentration, for example, 0.5 nM) in reaction buffer (50 mM Tris/HCl pH 7.5, 10 mM CaCl2, 150 mM NaCl, 0.05% Brij®-35) in a white 384-hole microtiter plate (MTP). The enzymatic reaction is started by adding the intramolecularly quenched Mca-Arg-Pro-Lys-Pro-Val-Glu-Nval-Trp-Arg-Lys(Dnp)-NH2 substrate (final concentration, for example, 5 μM; R&D Systems, ES-002), so as to result in a total test volume of 50 μl. The course of the MMP-3 reaction is measured by measuring the fluorescence intensity (excitation 320 nm, emission 410 nm) over a suitable period of time (for example over 120 min at a temperature of 32° C.).

mouse MMP-8 = molecular target: T2, mouse MMP-8 (Mus musculus, UniProt O70138); experiment: In vitro mouse MMP-8 inhibition test
T2 construct: purchased R&D Systems 2904-MP
T2 sequence (O70138 101-465): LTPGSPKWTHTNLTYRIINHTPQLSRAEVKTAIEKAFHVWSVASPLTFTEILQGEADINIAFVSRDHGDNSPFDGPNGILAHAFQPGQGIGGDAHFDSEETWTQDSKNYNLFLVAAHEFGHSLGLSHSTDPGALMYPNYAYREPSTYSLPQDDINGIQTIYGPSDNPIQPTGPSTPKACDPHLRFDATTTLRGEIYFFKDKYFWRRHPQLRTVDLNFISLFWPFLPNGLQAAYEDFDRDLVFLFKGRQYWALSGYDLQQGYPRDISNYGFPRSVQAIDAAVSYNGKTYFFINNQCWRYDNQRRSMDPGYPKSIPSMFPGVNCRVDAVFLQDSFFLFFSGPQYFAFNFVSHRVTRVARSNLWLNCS
From the text: as §1
as §2, with “MMP-8” for “MMP-3”, “2904-MP)” for “548-MP)”, “2” for “0.5”, “Mca-Lys-Pro-Leu-Gly-Leu-Dpa(Dnp)-Ala-Arg-NH2” for “Mca-Arg-Pro-Lys-Pro-Val-Glu-Nval-Trp-Arg-Lys(Dnp)-NH2”, “ES-010),” for “ES-002),”

mouse MMP-12 = molecular target: T3, mouse MMP-12 (Mus musculus, UniProt P34960); experiment: In vitro mouse MMP-12 inhibition test (standard or high-sensitivity)
T3 construct: purchased R&D Systems 3467-MP
T3 sequence (P34960 110-473): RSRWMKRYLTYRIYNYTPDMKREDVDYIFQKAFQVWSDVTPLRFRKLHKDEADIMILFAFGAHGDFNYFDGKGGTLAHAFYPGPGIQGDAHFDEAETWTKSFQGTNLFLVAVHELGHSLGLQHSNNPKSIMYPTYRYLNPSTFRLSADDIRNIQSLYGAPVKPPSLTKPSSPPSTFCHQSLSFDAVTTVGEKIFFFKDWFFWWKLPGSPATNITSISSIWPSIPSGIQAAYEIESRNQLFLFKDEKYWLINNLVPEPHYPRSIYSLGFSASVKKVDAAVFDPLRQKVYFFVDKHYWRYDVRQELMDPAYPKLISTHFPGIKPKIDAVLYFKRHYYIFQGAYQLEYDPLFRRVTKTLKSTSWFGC
From the text: as §1
Recombinant mouse MMP-12 (from R&D Systems, 3467-MP) is autocatalytically activated in accordance with the manufacturer's instructions. 1 μl of the test compound to be analysed (as a solution in DMSO, suitable concentrations, for example, 1 nM to 30 μM) is pipetted into 24 μl of activated enzyme (final concentration, for example, 1 nM) in reaction buffer (50 mM Tris/HCl pH 7.5, 10 mM CaCl2, 150 mM NaCl, 0.05% Brij®-35) in a white 384-hole microtiter plate (MTP). The enzymatic reaction is started by adding the intramolecularly quenched Mca-Lys-Pro-Leu-Gly-Leu-Dpa(Dnp)-Ala-Arg-NH2 substrate (final concentration, for example, 5 μM; R&D Systems, ES-010), so as to result in a total test volume of 50 The course of the MMP-12 reaction is measured by measuring the fluorescence intensity (excitation 320 nm, emission 410 nm) over a suitable period of time (for example over 120 min at a temperature of 32° C.).
In this case, an enzyme concentration ten times lower is used (final concentration, for example, 0.1 nM) in order to achieve an elevated test sensitivity. The incubation period chosen for the test is correspondingly longer (for example 16 hours).

mouse MMP-7 = molecular target: T4, mouse MMP-7 (Mus musculus, UniProt Q10738); experiment: In vitro mouse MMP-7 inhibition test
T4 construct: purchased R&D Systems 2967-MP
T4 sequence (Q10738 95-264): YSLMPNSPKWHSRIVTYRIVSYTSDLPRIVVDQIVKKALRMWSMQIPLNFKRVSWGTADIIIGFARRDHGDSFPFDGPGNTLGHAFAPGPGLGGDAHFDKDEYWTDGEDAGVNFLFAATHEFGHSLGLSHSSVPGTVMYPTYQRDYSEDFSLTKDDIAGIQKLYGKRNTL
From the text: as §1
as §2, with “MMP-7” for “MMP-3”, “2967-MP)” for “548-MP)”, “Mca-Lys-Pro-Leu-Gly-Leu-Dpa(Dnp)-Ala-Arg-NH2” for “Mca-Arg-Pro-Lys-Pro-Val-Glu-Nval-Trp-Arg-Lys(Dnp)-NH2”, “ES-010),” for “ES-002),”

T1 sequence (P28862 100-477): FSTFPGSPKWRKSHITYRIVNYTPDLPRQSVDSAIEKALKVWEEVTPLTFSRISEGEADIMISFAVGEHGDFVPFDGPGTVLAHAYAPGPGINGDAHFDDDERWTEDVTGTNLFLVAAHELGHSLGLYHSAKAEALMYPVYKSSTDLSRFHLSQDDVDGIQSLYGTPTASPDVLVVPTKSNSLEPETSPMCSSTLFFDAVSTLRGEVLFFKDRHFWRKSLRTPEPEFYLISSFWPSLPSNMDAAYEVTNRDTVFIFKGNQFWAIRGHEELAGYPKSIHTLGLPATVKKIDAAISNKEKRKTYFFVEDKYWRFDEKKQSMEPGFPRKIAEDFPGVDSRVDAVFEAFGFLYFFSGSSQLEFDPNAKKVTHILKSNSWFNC

Cc1ccc2nnn(C[C@@H]3CC[C@H](C(=O)c4ccc(OCc5cccc(Cl)c5)cc4)[C@H]3C(=O)O)c(=O)c2c1 (racemic) [Example 103, (+/−)-(1RS,2RS,5SR)-2-{4-[(3-Chlorobenzyl)oxy]benzoyl}-5-[(6-methyl-4-oxo-1,2,3-benzotriazin-3(4H)-yl)methyl]cyclopentanecarboxylic acid]
IC50 (mouse MMP-3): 1100 nM
IC50 (mouse MMP-8): 270 nM
IC50 (mouse MMP-12): 2.3 nM
IC50 (mouse MMP-7): 28 nM

Cc1ccc2nnn(C[C@@H]3CC[C@H](C(=O)c4ccc(OCc5cccc(OC(F)(F)F)c5)cc4)[C@H]3C(=O)O)c(=O)c2c1 (racemic) [Example 109, (+/−)-(1RS,2SR,5RS)-2-[(6-Methyl-4-oxo-1,2,3-benzotriazin-3(4H)-yl)methyl]-5-(4-{[3-(trifluoromethoxy)benzyl]oxy}benzoyl)cyclopentanecarboxylic acid]
IC50 (mouse MMP-3): 1100 nM
IC50 (mouse MMP-8): 450 nM
IC50 (mouse MMP-12): 3 nM
IC50 (mouse MMP-7): 250 nM

CCCCCOc1ccc(C(=O)[C@H]2CC[C@@H](Cn3nnc4ccc(C)cc4c3=O)[C@@H]2C(=O)O)cc1 (racemic) [Example 123, (+/−)-(1RS,2SR,5RS)-2-[(6-Methyl-4-oxo-1,2,3-benzotriazin-3(4H)-yl)methyl]-5-[4-(pentyloxy)benzoyl]cyclopentanecarboxylic acid]
IC50 (mouse MMP-3): 1800 nM
IC50 (mouse MMP-8): 91 nM
IC50 (mouse MMP-12): 4.9 nM
IC50 (mouse MMP-7): 100 nM

O=C(O)[C@@H]1[C@@H](Cn2nnc3ccc(C(F)(F)F)cc3c2=O)CC[C@H]1C(=O)c1ccc(OCc2cccc(Cl)c2)cc1 (single isomer, unassigned) [Example 23, (+)-(1RS,2RS,5SR)-2-{4-[(3-Chlorobenzyl)oxy]benzoyl}-5-{[4-oxo-6-(trifluoromethyl)-1,2,3-benzotriazin-3(4H)-yl]methyl}cyclopentanecarboxylic acid]
IC50 (mouse MMP-3): 8000 nM
IC50 (mouse MMP-8): 300 nM
IC50 (mouse MMP-12): 6.5 nM
IC50 (mouse MMP-7): 69 nM

O=C(O)[C@@H]1[C@@H](Cn2nnc3ccc(C(F)(F)F)cc3c2=O)CC[C@H]1C(=O)c1ccc(OCC2CCCCC2)cc1 (single isomer, unassigned) [Example 41, (+)-(1RS,2RS,5SR)-2-[4-(Cyclohexylmethoxy)benzoyl]-5-{[4-oxo-6-(trifluoromethyl)-1,2,3-benzotriazin-3(4H)-yl]methyl}cyclopentanecarboxylic acid]
IC50 (mouse MMP-3): 790 nM
IC50 (mouse MMP-8): 16 nM
IC50 (mouse MMP-12): 0.71 nM
IC50 (mouse MMP-7): 27 nM

O=C(O)[C@@H]1[C@@H](Cn2nnc3ccc(C(F)(F)F)cc3c2=O)CC[C@H]1C(=O)c1ccc(OCCC2CCCCC2)cc1 (single isomer, unassigned) [Example 52, (+)-(1RS,2RS,5SR)-2-[4-(2-Cyclohexylethoxy)benzoyl]-5-{[4-oxo-6-(trifluoromethyl)-1,2,3-benzotriazin-3(4H)-yl]methyl}cyclopentanecarboxylic acid]
IC50 (mouse MMP-3): 6900 nM
IC50 (mouse MMP-8): 160 nM
IC50 (mouse MMP-12): 10 nM
IC50 (mouse MMP-7): 170 nM

O=C(O)[C@@H]1[C@@H](Cn2nnc3ccc(C(F)(F)F)cc3c2=O)CC[C@H]1C(=O)c1ccc(SCc2ccccc2)cc1 (single isomer, unassigned) [Example 75, (+)-(1RS,2RS,5SR)-2-[4-(Benzylsulphanyl)benzoyl]-5-{[4-oxo-6-(trifluoromethyl)-1,2,3-benzotriazin-3(4H)-yl]methyl}cyclopentanecarboxylic acid]
IC50 (mouse MMP-3): 5900 nM
IC50 (mouse MMP-8): 410 nM
IC50 (mouse MMP-12): 2.3 nM
IC50 (mouse MMP-7): 120 nM

O=C(O)[C@@H]1[C@@H](Cn2nnc3ccc(C(F)(F)F)cc3c2=O)CC[C@H]1C(=O)c1ccc(SCc2cccc(Cl)c2)cc1 (single isomer, unassigned) [Example 77, (+)-(1RS,2RS,5SR)-2-{4-[(3-Chlorobenzyl)sulphanyl]benzoyl}-5-{[4-oxo-6-(trifluoromethyl)-1,2,3-benzotriazin-3(4H)-yl]methyl}cyclopentanecarboxylic acid]
IC50 (mouse MMP-3): 1400 nM
IC50 (mouse MMP-8): 130 nM
IC50 (mouse MMP-12): 2 nM
IC50 (mouse MMP-7): 54 nM

O=C(O)[C@@H]1[C@@H](Cn2nnc3ccc(C(F)(F)F)cc3c2=O)CC[C@H]1C(=O)c1ccc(SCc2ccc(Cl)c(Cl)c2)cc1 (single isomer, unassigned) [Example 80, (+)-(1RS,2RS,5SR)-2-{4-[(3,4-Dichlorobenzyl)sulphanyl]benzoyl}-5-{[4-oxo-6-(trifluoromethyl)-1,2,3-benzotriazin-3(4H)-yl]methyl}cyclopentanecarboxylic acid]
IC50 (mouse MMP-3): 2500 nM
IC50 (mouse MMP-8): 130 nM
IC50 (mouse MMP-12): 4.3 nM
IC50 (mouse MMP-7): 130 nM

Cc1ccc2nnn(C[C@H]3CC[C@@H](C(=O)c4ccc(OCc5ccccc5)cc4)[C@@H]3C(=O)O)c(=O)c2c1 (single isomer, unassigned) [Example 92, (+)-(1RS,2RS,5SR)-2-[4-(Benzyloxy)benzoyl]-5-[(6-methyl-4-oxo-1,2,3-benzotriazin-3(4H)-yl)methyl]cyclopentanecarboxylic acid]
IC50 (mouse MMP-3): 200 nM
IC50 (mouse MMP-8): 16 nM
IC50 (mouse MMP-12): 0.42 nM
IC50 (mouse MMP-7): 18 nM

Cc1cccc(COc2ccc(C(=O)[C@@H]3CC[C@H](Cn4nnc5ccc(C)cc5c4=O)[C@H]3C(=O)O)cc2)c1 (single isomer, unassigned) [Example 98, (+)-(1RS,2RS,5SR)-2-{4-[(3-Methylbenzyl)oxy]benzoyl}-5-[(6-methyl-4-oxo-1,2,3-benzotriazin-3(4H)-yl)methyl]cyclopentanecarboxylic acid]
IC50 (mouse MMP-3): 730 nM
IC50 (mouse MMP-8): 280 nM
IC50 (mouse MMP-12): 1.2 nM
IC50 (mouse MMP-7): 29 nM

Cc1ccc2nnn(C[C@H]3CC[C@@H](C(=O)c4ccc(OCc5cccc(C(F)(F)F)c5)cc4)[C@@H]3C(=O)O)c(=O)c2c1 (single isomer, unassigned) [Example 101, (+)-(1RS,2SR,5RS)-2-[(6-Methyl-4-oxo-1,2,3-benzotriazin-3(4H)-yl)methyl]-5-(4-{[3-(trifluoromethyl)benzyl]oxy}benzoyl)cyclopentanecarboxylic acid]
IC50 (mouse MMP-3): 1300 nM
IC50 (mouse MMP-8): 120 nM
IC50 (mouse MMP-12): 1.1 nM
IC50 (mouse MMP-7): 76 nM

— patent US20170022171A1, “2,5-DISUBSTITUTED CYCLOPENTANECARBOXYLIC ACIDS AND THEIR USE” (Bayer Pharma Aktiengesellschaft, priority 2014, published 2017)
